Assay results: patent publication US9079876B2, “Imidazole derivatives and preparation method and use thereof” (Beijing Orbiepharm Co., Ltd., priority 2010, dated 2015)

Legend:
[1] = Pharmacokinetic study, intravenous, rats; assay type: in vivo; details: male SD rats, IV 2 mg/kg
Method: Cimicoxib (cimicoxib) was IV administrated to male SD rats in vivo [2 mg/kg, 2 mg/ml, menstruum: DMSO/PEG 400/30% HP-b-CD ([…])], T1/2 was 3.20 h. The half-life of compound 1 was longer than cimicoxib.

[2] = target: T1, COX-1 (Canis lupus familiaris, UniProt Q8HZR1); test: Dog whole blood in vitro activity assay, COX-1; assay type: cell-based, beagle dog; details: read-out: IC50 (μg/mL) COX-1 (converted)
T1 construct: in vitro activity study using beagle dog whole blood was conducted; from tissue; host or cells: beagle dog whole blood (platelets, by the same method as for human blood)
T1 sequence (Q8HZR1 28-603): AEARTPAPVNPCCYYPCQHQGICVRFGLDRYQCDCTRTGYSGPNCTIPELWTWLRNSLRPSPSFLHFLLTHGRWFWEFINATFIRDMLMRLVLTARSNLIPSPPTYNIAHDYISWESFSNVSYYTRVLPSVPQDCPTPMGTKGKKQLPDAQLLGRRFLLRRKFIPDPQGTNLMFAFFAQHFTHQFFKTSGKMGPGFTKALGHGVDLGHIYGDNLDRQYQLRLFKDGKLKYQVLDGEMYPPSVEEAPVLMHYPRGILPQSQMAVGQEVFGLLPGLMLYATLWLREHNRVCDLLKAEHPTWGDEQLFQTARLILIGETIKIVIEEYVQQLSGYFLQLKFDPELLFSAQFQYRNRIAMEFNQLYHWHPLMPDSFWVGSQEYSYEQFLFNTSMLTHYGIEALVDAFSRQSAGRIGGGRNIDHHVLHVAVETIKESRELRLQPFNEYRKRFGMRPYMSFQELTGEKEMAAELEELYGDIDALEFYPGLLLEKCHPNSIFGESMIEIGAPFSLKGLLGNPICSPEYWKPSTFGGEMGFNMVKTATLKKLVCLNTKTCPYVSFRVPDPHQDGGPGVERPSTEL

[3] = system: mice tail suspension immobility time; test: Tail suspension test in mice (anti-depression model); assay type: in vivo, Male Kunming mice
Method: In Vivo Test: Tail Suspension Test in Mice (Evaluation on an Anti-Depression Model)
Male Kunming mice, approximately 20 g, were randomized into six groups, i.e. normal group, positive drug group (fluoxetine 20 mg/kg), compound 1: group A 5 mg/kg, group B 10 mg/kg, group C 20 mg/kg, and group D 40 mg/kg.
Single Dose Test: Mice were normally fed for 1 day and allowed to adapt to the environment. Then the mice were fasted (except water) for 16 hours, and were intragastrically administrated with a single dose of the compound. The normal group was intragastrically administrated with an equivalent amount of distilled water. 40 min after the administration, the mice were inverted and fixed to a tail suspension device, and the distance between the head and the desktop was about 30 cm. Immobility time was recorded with an analysis record system, for the latter 4 min within the 6 min recording period, and was used for statistical analysis.
(§1) Study with Three-Day Consecutive Dosing: Mice were normally fed for 1 day and allowed to adapt to the environment. Then the mice were intragastrically administrated with the test drug for 3 consecutive days (once per day), and the normal group was intragastrically administrated with an equivalent amount of distilled water. The mice were fasted (except water) for 16 hours before the last dosing. 40 min after the last dosing, the mice were inverted and fixed to the tail suspension device, and the distance between the head and the desktop was about 30 cm. Immobility time was recorded with an analysis record system, for the latter 4 min within the 6 min recording period, and was used for statistical analysis.
as §1, with “with Seven-Day” for “with Three-Day”, “intragastrically dosed” for “intragastrically administrated with the test drug”, “for 7” for “for 3”, “days (once/day),” for “days (once per day),”, “last administration.” for “last dosing.”, “last administration,” for “last dosing,”

[4] = target: T2, COX-2 (Canis lupus familiaris, UniProt Q8SPQ9); test: Dog whole blood in vitro activity assay, COX-2; assay type: cell-based, beagle dog
T2 construct: in vitro activity study using beagle dog whole blood was conducted; from tissue; host or cells: beagle dog whole blood, stimulated with LPS (by the same method as for human blood)
T2 sequence (Q8SPQ9 18-604): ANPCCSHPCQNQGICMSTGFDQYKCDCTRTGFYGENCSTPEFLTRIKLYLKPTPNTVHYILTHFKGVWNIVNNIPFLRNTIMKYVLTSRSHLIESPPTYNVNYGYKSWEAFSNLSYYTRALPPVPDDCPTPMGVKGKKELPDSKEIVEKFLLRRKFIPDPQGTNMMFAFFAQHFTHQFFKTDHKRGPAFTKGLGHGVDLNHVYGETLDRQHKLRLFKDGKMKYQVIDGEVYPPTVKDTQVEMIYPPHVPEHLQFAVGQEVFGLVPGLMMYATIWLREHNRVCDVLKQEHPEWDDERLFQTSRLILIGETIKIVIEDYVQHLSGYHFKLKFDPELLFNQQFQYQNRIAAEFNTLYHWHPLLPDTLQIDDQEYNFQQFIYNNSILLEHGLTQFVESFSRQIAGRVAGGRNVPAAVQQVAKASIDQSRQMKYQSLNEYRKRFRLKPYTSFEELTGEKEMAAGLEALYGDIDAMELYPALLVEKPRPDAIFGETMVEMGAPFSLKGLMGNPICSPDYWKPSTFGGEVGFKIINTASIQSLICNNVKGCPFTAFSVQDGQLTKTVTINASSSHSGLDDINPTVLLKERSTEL

- t1/2 [1]: 5.37 ± 0.51 h
- AUC(0-t) ([1]; rat, in vivo): 11400 ± 949 ng·h/mL
- C0 ([1]; rat, in vivo): 1700 ± 259 ng/mL
- clearance ([1]; rat, in vivo): 2.83 ± 0.27 mL/min/kg
- half-life ([1]; rat, in vivo, 2 mg/ml, DMSO/PEG 400/30% HP-b-CD): 5.37 h
- Vd ([1]; rat, in vivo, read-out: Vss): 1.16 ± 0.02 L/kg
- IC50 [2]: 219 µM
- IC50COX-1/IC50COX-2 [4]: 83.2
- IC50 ([4]; read-out: IC50 (μg/mL) COX-2 (converted)): 2.64 µM
Structure (SMILES): CS(=O)(=O)c1ccc(-n2cnc(Cl)c2-c2ccccc2)nc1 [Compound 1, 2-(4-chloro-5-phenyl-1H-imidazol-1-yl)-5-(methylsulfonyl)pyridine]
- tail suspension Immobility time ([3]; 3 days consecutive administration, 5 mg/kg intragastric, in s (unit assumed)): 45.36 ± 12.09
- tail suspension Immobility time ([3]; 3 days consecutive administration, 10 mg/kg intragastric, in s (unit assumed)): 31.94 ± 8.76
- tail suspension Immobility time ([3]; 3 days consecutive administration, 20 mg/kg intragastric, in s (unit assumed)): 33.64 ± 15.78
- tail suspension Immobility time ([3]; 3 days consecutive administration, 40 mg/kg intragastric, in s (unit assumed)): 41.36 ± 14.22
- tail suspension Immobility time ([3]; 7 days consecutive administration, 5 mg/kg intragastric, 5 mg/kg, in s (unit assumed)): 45.11 ± 16.88
- tail suspension Immobility time ([3]; 7 days consecutive administration, 5 mg/kg intragastric, listed as test drug, 5 mg/kg): tendency of reduction in immobility time
- tail suspension Immobility time ([3]; 7 days consecutive administration, 10 mg/kg intragastric, in s (unit assumed)): 36.47 ± 15.13
- tail suspension Immobility time ([3]; 7 days consecutive administration, 20 mg/kg intragastric, in s (unit assumed)): 29.98 ± 9.87
- tail suspension Immobility time ([3]; 7 days consecutive administration, 40 mg/kg intragastric, in s (unit assumed)): 29.70 ± 15.02
- tail suspension Immobility time ([3]; single dose, 5 mg/kg intragastric, 40 min after administration, in s (unit assumed)): 46.57 ± 16.46
- tail suspension Immobility time ([3]; single dose, 10 mg/kg intragastric, 40 min after administration, in s (unit assumed)): 47.10 ± 17.93
- tail suspension Immobility time ([3]; single dose, 20 mg/kg intragastric, 40 min after administration, in s (unit assumed)): 43.25 ± 14.41
- tail suspension Immobility time ([3]; single dose, 40 mg/kg intragastric, 40 min after administration, in s (unit assumed)): 46.58 ± 15.32
